Calls of active or inactive are those of the source. The rule behind the calls is not given here.
Columns and labels:
[1] = Effect on glucose-dependent insulin secretion activity per ug of total protein in rat RIN5F cells at 0.1 uM after 30 mins; type: functional
[2] = Effect on glucose-dependent insulin secretion activity per ug of total protein in rat RIN5F cells at 1 uM after 30 mins; type: functional
[3] = Effect on glucose-dependent insulin secretion activity per ug of total protein in rat RIN5F cells at 10 uM after 30 mins; type: functional
Bos taurus = species on record: Bos taurus; assay: Displacement of [3H]clonidine from I1-imidazoline binding site in bovine adrenal medulla plasma membrane upto 100 uM; type: tissue-based
Oryctolagus cuniculus = species on record: Oryctolagus cuniculus; assay: Displacement of [3H]idazoxan from I2-imidazoline binding site in rabbit kidney membrane upto 100 uM; type: cell membranes
Rattus norvegicus = species on record: Rattus norvegicus; assay: Displacement of [3H]clonidine from alpha2-AR in cerebral cortex of rat brain upto 100 uM; type: tissue-based
[4] = Effect on insulin secretion activity per ug of total protein in rat RIN5F cells at 1 uM after 30 mins; type: functional
[5] = Effect on insulin secretion activity per ug of total protein in rat RIN5F cells at 0.1 uM after 30 mins; type: functional
[6] = Displacement of [3H]clonidine from I1-imidazoline binding site in bovine adrenal medulla plasma membrane; type: tissue-based, Bos taurus
[7] = Displacement of [3H]idazoxan from I2-imidazoline binding site in rabbit kidney membrane; type: cell membranes, Oryctolagus cuniculus
[8] = Displacement of [3H]clonidine from alpha-2-adrenoceptor in cerebral cortex of rat brain; type: tissue-based

Compound	Activity [1] [pg/µg/h]	Activity [2] [pg/µg/h]	Activity [3] [pg/µg/h]	Activity (Bos taurus)	Activity (Oryctolagus cuniculus)	Activity (Rattus norvegicus)	Activity [4] [pg/µg/h]	Activity [5] [pg/µg/h]	Ki [6] [nM]	Ki [7] [nM]	Ki [8] [nM]
COC(=O)c1cc2c3cc(C)cnc3n(C)c2c(Cc2ccccc2)n1	15.9	16.1	16.9	inactive	inactive	inactive					
COC(=O)C1Cc2c(n(C)c3ncc(C)cc23)C(Cc2ccccc2)N1 (stereo not drawn)	15.1	15.9	16.8	inactive	inactive	inactive					
Cc1cnc2c(c1)c1cc(C(=O)O)nc(Cc3ccccc3)c1n2C	20	28.1	38.3	inactive	inactive	inactive					
CCCCNC(=O)NS(=O)(=O)c1ccc(C)cc1 [TOLBUTAMIDE]	19.9	27.1					26	19.6			
Cc1nccc2c1[nH]c1ccccc12 [HARMAN]	20	27	37						36	54	> 12000
